Marks after values point to notes of the source that are not given here.
Columns and labels:
[1] = biological target: α1B-adrenergic (Rattus norvegicus, UniProt P15823); assay: Receptor binding α1B-adrenergic; conditions: radioligand [3H]-prazosin, read-out: Ki(nM) Compound 1
Experimental: (§1) Receptor binding data were obtained by CEREP (128, rue Danton, 92500 Rueil-Malmaison, France) or at Solvay Pharmaceuticals B.V., using well documented standard procedures. Affinity for 5-HT1A receptors for instance, was determined by testing the ability of the compounds of the invention to displace [^3H]-2-(di-n-propylamino)-8-hydroxytetralin ([^3H]-8-OH-DPAT) from its specific binding sites in rat frontal cortex homogenates. This test is based on the method described by Gozlan et al. (Nature, 305, (1983), pages 140-142).
(§2) The binding data collected in the table below were either obtained by CEREP (128, rue Danton, 92500 Rueil-Malmaison, France) or at Solvay Pharmaceuticals B.V., using well documented standard procedures.

[2] = biological target: CGRP (Homo sapiens, UniProt O60894+Q16602); assay: Receptor binding CGRP; conditions: radioligand [125I]-CGRPa, read-out: Ki(nM) Compound 1
CGRP, sequence (Q16602 23-461): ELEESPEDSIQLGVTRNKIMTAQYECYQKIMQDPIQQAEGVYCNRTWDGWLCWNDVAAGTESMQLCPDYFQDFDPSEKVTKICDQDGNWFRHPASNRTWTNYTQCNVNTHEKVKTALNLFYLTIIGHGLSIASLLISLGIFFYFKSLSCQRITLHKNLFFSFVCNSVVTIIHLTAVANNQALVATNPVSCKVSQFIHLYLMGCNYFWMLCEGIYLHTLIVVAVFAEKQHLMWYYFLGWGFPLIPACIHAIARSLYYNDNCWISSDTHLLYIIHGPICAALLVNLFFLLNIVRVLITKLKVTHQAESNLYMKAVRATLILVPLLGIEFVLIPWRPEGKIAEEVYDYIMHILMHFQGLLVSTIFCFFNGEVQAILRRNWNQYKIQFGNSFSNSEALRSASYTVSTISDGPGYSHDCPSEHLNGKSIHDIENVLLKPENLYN
CGRP, sequence (O60894 27-148): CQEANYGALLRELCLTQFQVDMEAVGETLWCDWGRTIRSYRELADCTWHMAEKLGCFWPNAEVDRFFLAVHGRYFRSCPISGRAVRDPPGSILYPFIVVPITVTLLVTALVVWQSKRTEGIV
Experimental: as §1, §2

[3] = biological target: Muscarine-M1 (Homo sapiens, UniProt P11229); assay: Receptor binding Muscarine-M1; conditions: radioligand [3H]-pirenzepine, read-out: Ki(nM) Compound 1
Muscarine-M1, sequence (P11229 whole entry): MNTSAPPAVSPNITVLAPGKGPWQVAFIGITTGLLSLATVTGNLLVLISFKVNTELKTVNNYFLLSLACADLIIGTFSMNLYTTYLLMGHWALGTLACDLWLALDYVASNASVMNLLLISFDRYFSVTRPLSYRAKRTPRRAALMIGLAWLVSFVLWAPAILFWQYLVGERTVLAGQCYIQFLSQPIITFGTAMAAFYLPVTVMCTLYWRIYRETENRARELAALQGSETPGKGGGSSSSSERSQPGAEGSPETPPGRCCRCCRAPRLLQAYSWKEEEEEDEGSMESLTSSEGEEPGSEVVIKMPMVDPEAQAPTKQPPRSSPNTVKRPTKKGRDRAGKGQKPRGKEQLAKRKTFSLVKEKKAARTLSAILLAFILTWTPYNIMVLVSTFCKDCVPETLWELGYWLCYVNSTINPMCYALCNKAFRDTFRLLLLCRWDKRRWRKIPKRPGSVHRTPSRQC
Experimental: as §1, §2

[4] = biological target: Histamine-H1 (Homo sapiens, UniProt P35367); assay: Receptor binding Histamine-H1; conditions: radioligand [3H]-pyrilamine, read-out: Ki(nM) Compound 1
Histamine-H1, sequence (P35367 whole entry): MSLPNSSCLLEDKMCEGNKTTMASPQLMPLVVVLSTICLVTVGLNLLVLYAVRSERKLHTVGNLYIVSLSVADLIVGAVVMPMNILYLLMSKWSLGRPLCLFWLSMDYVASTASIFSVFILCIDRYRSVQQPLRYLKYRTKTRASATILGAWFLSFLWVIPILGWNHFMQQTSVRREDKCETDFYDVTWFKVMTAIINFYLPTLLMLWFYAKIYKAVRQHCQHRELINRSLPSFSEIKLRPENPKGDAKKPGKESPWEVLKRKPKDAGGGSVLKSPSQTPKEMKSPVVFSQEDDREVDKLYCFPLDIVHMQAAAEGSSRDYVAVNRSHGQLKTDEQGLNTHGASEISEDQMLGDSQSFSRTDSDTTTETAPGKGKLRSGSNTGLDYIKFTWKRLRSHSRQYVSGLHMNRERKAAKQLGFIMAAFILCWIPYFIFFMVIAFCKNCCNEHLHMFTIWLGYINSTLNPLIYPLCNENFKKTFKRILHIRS
Experimental: as §1, §2

[5] = biological target: β2-adrenergic (Homo sapiens, UniProt P07550); assay: Receptor binding β2-adrenergic; conditions: radioligand [3H]-CGP 12177, read-out: Ki(nM) Compound 1
Experimental: as §1, §2

[6] = biological target: α1A-adrenergic (Rattus norvegicus, UniProt P43140); assay: Receptor binding α1A-adrenergic; conditions: radioligand [3H]-prazosin, read-out: Ki(nM) Compound 1
α1A-adrenergic, sequence (P43140 whole entry): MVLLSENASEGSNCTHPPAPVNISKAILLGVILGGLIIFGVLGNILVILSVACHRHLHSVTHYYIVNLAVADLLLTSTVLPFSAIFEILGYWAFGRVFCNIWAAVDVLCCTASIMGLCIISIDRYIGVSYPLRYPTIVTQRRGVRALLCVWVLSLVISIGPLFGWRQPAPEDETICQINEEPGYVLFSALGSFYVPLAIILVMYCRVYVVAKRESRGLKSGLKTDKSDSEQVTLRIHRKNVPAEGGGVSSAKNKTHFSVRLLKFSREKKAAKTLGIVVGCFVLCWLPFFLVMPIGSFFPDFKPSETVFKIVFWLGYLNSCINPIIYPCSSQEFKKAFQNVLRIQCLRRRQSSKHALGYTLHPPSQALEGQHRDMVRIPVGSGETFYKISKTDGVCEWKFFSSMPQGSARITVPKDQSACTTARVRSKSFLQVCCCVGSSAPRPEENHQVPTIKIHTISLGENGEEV
Experimental: as §1, §2

[7] = tested on: BDNF; assay: Induction of growth factors: BDNF RNA in brain areas by quantitative PCR; type: in vivo; conditions: 3 mg/kg p.o. once daily, 3 weeks
Experimental: Compounds of the invention (3 mg/kg, p.o.) or vehicle are administered once daily during a period of 3 weeks (n=8 animals per treatment group). 24 hours after the last dose the animals are sacrificed (using CO2/O2 anesthesia), the brains are removed and the dissected. RNA is extracted from the individual brain samples and induction of the growth factors BDNF and GDNF is determined by quantitative PCR. Total RNA is isolated with the Trizol method (Invitrogen) from the brain pieces. cDNA is made starting with 2 μg of total RNA (pretreated for 30 min with DNAse (Ambion) in first strand buffer) using the reverse transcriptase Superscript II (Invitrogen). Quantification of […] by real time PCR makes use of the observation that the early cycles of PCR are characterized by an exponential increase in target amplification. The accumulation of PCR product is measured using Sybergreen II. Primers are designed using the software package Primer Express (Applied Biosystems). Expression levels of the housekeeping genes ornithine decarboxylase (ODC_ex8) and alpha tubulin (TUBA) used for normalization and as control for good cDNA synthesis.

[8] = biological target: angiotensin-AT2 (Homo sapiens, UniProt P50052); assay: Receptor binding angiotensin-AT2; conditions: radioligand [125I]-CPG 42112A, read-out: Ki(nM) Compound 1
angiotensin-AT2, sequence (P50052 whole entry): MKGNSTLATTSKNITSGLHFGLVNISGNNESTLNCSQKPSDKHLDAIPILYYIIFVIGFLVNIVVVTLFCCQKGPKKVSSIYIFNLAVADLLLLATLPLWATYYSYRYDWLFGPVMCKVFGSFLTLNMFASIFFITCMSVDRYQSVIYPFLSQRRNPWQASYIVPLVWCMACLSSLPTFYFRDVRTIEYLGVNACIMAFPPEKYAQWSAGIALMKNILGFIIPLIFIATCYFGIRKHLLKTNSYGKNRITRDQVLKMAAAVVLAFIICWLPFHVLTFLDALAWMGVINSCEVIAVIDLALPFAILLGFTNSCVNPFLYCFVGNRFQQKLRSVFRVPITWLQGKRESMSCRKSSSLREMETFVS
Experimental: as §1, §2

[9] = tested on: rats with unilateral 6-OHDA lesions; assay: Turning experiments in animals with unilateral 6-hydroxydopamine lesions of the substantia nigra compacta; type: in vivo
Experimental: Male rats (Wistar, Harlan, Netherlands; 400-500 g at time of experiment) are housed in a temperature (20-21±2° C.) and humidity controlled environment and receive water ad libitum except during experimental sessions. Food is restricted to approximately 15 g per rat per day. A 12-hour light-dark cycle (lights on 07.00-19.00 hour) is used.
Unilateral 6-hydroxydopamine (6-OH DA) lesions of the substantia nigra zona compacta are performed using a stereotaxic procedure. One hour prior to surgery, desmethyl-imipramine (20 mg/kg, i.p.) is administered to protect noradrenergic neurons. Rats are anaesthetized with a 3% halothane+0.8 l/min N2O+0.8 l/min O2-gas mixture at 1013 mbar. During surgery the gas mixture is adjusted to 1.75-2% halothane, 0.6 l/min N2O and 0.6 l/min O2. The incisor bar of the stereotaxic instrument (Kopf, Calif., USA) iss set at −3.3 mm, a burr hole was drilled over the substantia nigra pars compacta and 3 μl of a 6-OHDA solution (3.33 mg/ml) is injected (flow rate=0.75 μl/min; the needle is left in place for 4 minutes prior to withdrawal). Coordinates for this procedure are: anterior posterior +3.2 mm from the interaural line; medial/lateral +1.8 mm from the midline and ventral −8.2 from the skull surface. Animals are allowed to recover for approximately 2 weeks prior to testing. Good turning rats are defined as those which elicited at least 20 contralateral turns following amphetamine (2.5 mg/kg sc) in the 5 min time epoch beginning 25 min after administration and a mean of at least 20 contralateral turns recorded over a 30 min period after administration of apomorphine (0.25 mg/kg s.c.). Regular testing with apomorphine (0.1 or 0.25 mg/kg s.c.) is carried out to ensure the reliability of the animals in this procedure.
Eight commercially available (TSE systems Bad Homburg, Germany) ‘rotameter’ units (transparent plastic bowls; 57×55×52 cm) are used for testing. The rats are harnessed and tethered to a rotation sensor interfaced to an IBM compatible personal computer (using the TSE Rotameter Software v. 1.11, TSE systems Bad Homburg, Germany) which registers clockwise or counterclockwise movement. An internal software rotation filter of 10 is used.
Following statistical randomization of the treatment groups rats are pretreated with compounds of the invention (0.1-3 mg/kg p.o.) or vehicle (2 ml/kg) and placed in the rotameters the contralateral rotational behaviour is then measured. In further studies the effects of L-DOPA (1-10 mg/kg p.o.) are assessed on contralateral rotations. The peripheral decarboxylase inhibitor benserazide (30 mg/kg i.p.) can be used. In combination studies a range of L-DOPA (1-10) doses and doses of compounds of the invention (0.1-3 mg/kg p.o.) can be combined.

[10] = biological target: GABAB (Rattus norvegicus, UniProt Q9Z0U4); assay: Receptor binding GABAB; conditions: read-out: Ki(nM) Compound 1
GABAB, sequence (Q9Z0U4 17-960 limits assumed): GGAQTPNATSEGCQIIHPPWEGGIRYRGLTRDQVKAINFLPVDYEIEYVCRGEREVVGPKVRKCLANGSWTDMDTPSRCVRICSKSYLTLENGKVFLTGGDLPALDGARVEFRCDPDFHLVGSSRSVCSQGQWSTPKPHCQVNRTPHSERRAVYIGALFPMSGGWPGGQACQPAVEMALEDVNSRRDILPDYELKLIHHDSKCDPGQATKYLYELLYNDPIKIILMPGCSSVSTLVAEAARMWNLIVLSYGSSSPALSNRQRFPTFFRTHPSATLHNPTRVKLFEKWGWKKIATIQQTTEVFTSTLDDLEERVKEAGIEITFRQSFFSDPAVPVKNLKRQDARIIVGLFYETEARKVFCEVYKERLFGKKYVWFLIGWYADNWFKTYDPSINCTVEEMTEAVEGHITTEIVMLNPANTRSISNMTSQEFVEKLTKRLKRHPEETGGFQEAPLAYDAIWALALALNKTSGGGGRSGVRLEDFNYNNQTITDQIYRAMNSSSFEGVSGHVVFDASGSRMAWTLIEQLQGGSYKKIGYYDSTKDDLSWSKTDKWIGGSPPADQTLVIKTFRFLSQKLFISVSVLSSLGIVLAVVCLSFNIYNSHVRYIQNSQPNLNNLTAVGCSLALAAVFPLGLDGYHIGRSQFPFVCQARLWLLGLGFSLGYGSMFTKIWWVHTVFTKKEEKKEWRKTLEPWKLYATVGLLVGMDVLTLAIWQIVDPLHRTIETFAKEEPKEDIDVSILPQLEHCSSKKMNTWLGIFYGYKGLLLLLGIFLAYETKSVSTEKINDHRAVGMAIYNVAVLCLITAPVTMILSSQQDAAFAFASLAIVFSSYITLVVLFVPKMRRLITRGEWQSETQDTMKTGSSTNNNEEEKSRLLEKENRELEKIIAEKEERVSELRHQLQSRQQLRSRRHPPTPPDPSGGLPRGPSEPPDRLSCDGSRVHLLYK
GABAB, sequence (O88871 41-940 partner): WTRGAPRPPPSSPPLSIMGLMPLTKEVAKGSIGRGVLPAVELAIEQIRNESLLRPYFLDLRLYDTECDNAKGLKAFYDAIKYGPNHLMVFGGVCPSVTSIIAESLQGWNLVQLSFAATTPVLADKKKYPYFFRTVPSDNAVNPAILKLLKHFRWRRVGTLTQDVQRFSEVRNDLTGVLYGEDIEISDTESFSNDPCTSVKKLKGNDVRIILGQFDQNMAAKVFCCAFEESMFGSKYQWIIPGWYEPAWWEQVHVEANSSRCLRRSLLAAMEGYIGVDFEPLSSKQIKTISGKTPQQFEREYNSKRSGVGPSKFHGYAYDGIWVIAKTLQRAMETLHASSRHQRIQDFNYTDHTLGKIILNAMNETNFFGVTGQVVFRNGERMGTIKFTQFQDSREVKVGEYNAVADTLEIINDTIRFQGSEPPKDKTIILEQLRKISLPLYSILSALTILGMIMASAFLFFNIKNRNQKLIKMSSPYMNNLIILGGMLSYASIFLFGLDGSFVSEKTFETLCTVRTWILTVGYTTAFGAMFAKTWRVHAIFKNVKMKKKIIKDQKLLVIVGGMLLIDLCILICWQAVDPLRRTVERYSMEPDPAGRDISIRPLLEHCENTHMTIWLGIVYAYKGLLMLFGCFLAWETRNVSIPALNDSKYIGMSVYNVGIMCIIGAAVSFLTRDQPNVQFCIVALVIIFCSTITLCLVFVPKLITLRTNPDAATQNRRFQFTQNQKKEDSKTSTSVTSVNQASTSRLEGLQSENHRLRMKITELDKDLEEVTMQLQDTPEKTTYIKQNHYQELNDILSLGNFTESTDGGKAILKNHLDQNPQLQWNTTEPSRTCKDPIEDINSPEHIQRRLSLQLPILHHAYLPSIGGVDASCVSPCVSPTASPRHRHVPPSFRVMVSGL
Experimental: as §1, §2

[11] = biological target: Galanin-GAL2 (Homo sapiens, UniProt O43603); assay: Receptor binding Galanin-GAL2; conditions: radioligand [125I]-galanin, read-out: Ki(nM) Compound 1
Galanin-GAL2, sequence (O43603 whole entry): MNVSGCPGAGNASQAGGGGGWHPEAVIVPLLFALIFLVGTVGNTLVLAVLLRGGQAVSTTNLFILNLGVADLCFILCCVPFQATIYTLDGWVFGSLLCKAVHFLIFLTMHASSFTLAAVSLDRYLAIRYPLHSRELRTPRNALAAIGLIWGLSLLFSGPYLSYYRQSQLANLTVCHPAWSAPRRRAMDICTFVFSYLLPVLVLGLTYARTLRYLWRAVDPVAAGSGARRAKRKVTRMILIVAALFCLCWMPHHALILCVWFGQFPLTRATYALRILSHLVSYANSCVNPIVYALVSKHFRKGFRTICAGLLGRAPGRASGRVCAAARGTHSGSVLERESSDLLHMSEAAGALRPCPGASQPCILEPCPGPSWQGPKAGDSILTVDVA
Experimental: as §1, §2

[12] = biological target: CCR1 (Homo sapiens, UniProt P32246); assay: Receptor binding CCR1; conditions: radioligand [125I]-MIP-1a, read-out: Ki(nM) Compound 1
CCR1, sequence (P32246 whole entry): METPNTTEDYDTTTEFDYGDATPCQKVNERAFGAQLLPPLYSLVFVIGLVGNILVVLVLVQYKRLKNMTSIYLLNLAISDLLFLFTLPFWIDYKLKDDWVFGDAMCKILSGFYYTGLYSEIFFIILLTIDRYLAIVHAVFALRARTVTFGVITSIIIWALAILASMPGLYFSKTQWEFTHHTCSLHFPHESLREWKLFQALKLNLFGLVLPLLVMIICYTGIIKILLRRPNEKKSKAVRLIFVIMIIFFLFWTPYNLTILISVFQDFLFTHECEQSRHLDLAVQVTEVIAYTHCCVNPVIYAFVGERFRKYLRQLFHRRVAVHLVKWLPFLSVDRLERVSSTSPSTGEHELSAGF
Experimental: as §1, §2

Question: How did the Ki [1] turn out when `Nc1cc2cccc(N3CCNCC3)c2oc1=O` [Compound 1, 3-amino-8-(1-piperazinyl)-2H-1-benzopyran-2-one] was run?
Answer: > 1000 nM

Question: What about the Ki [2] of the same molecule?
Answer: > 1000 nM

Question: What about the Ki [3] of the same molecule?
Answer: > 1000 nM

Question: And the Ki [4]?
Answer: > 1000 nM

Question: What about the Ki [5] of the same molecule?
Answer: 40 nM

Question: And the Ki [6]?
Answer: 630 nM

Question: And the “BDNF RNA, fold increase compared to vehicle treatment” value (from here on “BDNF RNA, fold increase”) ([7]; hippocampus)?
Answer: 2.4 fold

Question: What about the “BDNF RNA, fold increase” value ([7]; nucleus accumbens) of the same molecule?
Answer: 5.1 fold

Question: And the “BDNF RNA, fold increase” value ([7]; prefrontal cortex)?
Answer: 2.1 fold

Question: What about the “BDNF RNA, fold increase” value ([7]; striatum) of the same molecule?
Answer: 1.8 fold

Question: And the “BDNF RNA, fold increase” value ([7]; thalamus)?
Answer: 2.3 fold

Question: What about the Ki [8] of the same molecule?
Answer: > 1000 nM

Question: What about the “Mean number of turns (rotations contralateral to the direction of a 6-OHDA lesion)” value (from here on “Mean number of turns”) ([9]; 0.3 mg/kg p.o.) of the same molecule?
Answer: 20.925

Question: And the “Mean number of turns” value ([9]; 0.5 mg/kg p.o.)?
Answer: 22.988

Question: And the “Mean number of turns” value ([9]; 0.75 mg/kg p.o.)?
Answer: 106.35*

Question: What about the “Mean number of turns” value ([9]; 1.0 mg/kg p.o.) of the same molecule?
Answer: 77.1*

Question: And the “minimal effective dose, contralateral rotation” value ([9]; p.o.)?
Answer: 0.75 mg/kg

Question: And the Ki [10]?
Answer: > 1000 nM

Question: What about the Ki [11] of the same molecule?
Answer: > 1000 nM

Question: And the Ki [12]?
Answer: > 1000 nM

Source: US20050215551A1, “1-[2H-1-benzopyran-2-one-8-yl]- piperazine derivatives for the treatment of movement disorders” (SOLVAY PHARMACEUTICALS B.V., priority 2004, published 2005)
